Reference: patent US20040161861A1, “Glycoconjugate sensors” (priority 2002, published 2004)

Key:
Conditions in all cases: colorimetric ELISA, OD at 405 nm, FIG. 5
B. thuringiensis spores = type: binding, Bacillus thuringiensis
B. cereus spores = type: binding, Bacillus cereus
B. subtilis spores = type: binding, Bacillus subtilis
B. pumilus spores = type: binding

Fuc α1-3 GlcNAc β-PAA-flu
binding match between spores and immobilized glycoconjugate (B. thuringiensis spores): bound

Fuc α 1-4 GlcNAc β-PAA-flu
binding match between spores and immobilized glycoconjugate (B. thuringiensis spores): bound

Gal α 1-3 GalNAc α-PAA-flu
binding match between spores and immobilized glycoconjugate (B. cereus spores): bound

Gal β1-3 Gal β-PAA-flu
binding match between spores and immobilized glycoconjugate (B. subtilis spores): bound

Gal β1-3 GalNAc β-PAA-flu
binding match between spores and immobilized glycoconjugate (B. pumilus spores): bound

Gal β1-3GalNAc α-PAA-flu
binding match between spores and immobilized glycoconjugate (B. pumilus spores): bound

Gal β 1-4 Glc β-PAA-flu
binding match between spores and immobilized glycoconjugate (B. cereus spores): bound

GlcNAc β 1-4 GlcNAc β-PAA-flu
binding match between spores and immobilized glycoconjugate (B. subtilis spores): bound
